In PubChem BioAssay AID1963851 (Molecular Pharmacology Branch, DTP, NCI, 2024):

Tested on: 188146-221-R-J1-PDC complex spheroid viability
Assay: Anticancer human tumor 188146-221-R-J1-PDC patient-derived colon adenocarcinoma cell line growth inhibition [POLQ]
Conditions: for IC50: curve of first compound; for viability, T/C: stronger effect = lower value
Summary of the method: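 Three-cell-type spheroids modelling solid tumor plus stroma served as the readout system; POL inhibitors were tested individually and in combination, concentration ranges set by clinical Cmax where known.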
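Note: spheroids exposed to compounds for seven days.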
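Throughout, for viability, T/C: 100% = DMSO vehicle control viability.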

Structure (SMILES): CC1COCCN1c1cc(C2(O)CC3CCC(C2)O3)c2cnn(-c3ccn[nH]3)c2n1 (centres undefined) + Cc1cccc(N(C)C(=O)C2C(O)CCN2c2nc(C)cc(C(F)(F)F)c2C#N)c1
- IC50 (second compound 0.0316 µM): 422 nM
- IC50 (second compound 0.1 µM): 322 nM
- IC50 (second compound 0.316 µM): 365 nM
- IC50 (second compound 1 µM): 426 nM
- IC50 (second compound 3.16 µM): 259 nM
- IC50 (second compound 10 µM): 190 nM
- viability, T/C (second compound 0.0316 µM, first compound 0.0316 µM): 83.2%
- viability, T/C (second compound 0.0316 µM, first compound 0.1 µM): 67.8%
- viability, T/C (second compound 0.0316 µM, first compound 0.316 µM): 61.5%
- viability, T/C (second compound 0.0316 µM, first compound 1 µM): 27.6%
- viability, T/C (second compound 0.0316 µM, first compound 3.16 µM): 19.2%
- viability, T/C (second compound 0.0316 µM, first compound 10 µM): 7.58%
- viability, T/C (second compound 0.1 µM, first compound 0.0316 µM): 95.3%
- viability, T/C (second compound 0.1 µM, first compound 0.1 µM): 75.7%
- viability, T/C (second compound 0.1 µM, first compound 0.316 µM): 51.1%
- viability, T/C (second compound 0.1 µM, first compound 1 µM): 26.6%
- viability, T/C (second compound 0.1 µM, first compound 3.16 µM): 16.8%
- viability, T/C (second compound 0.1 µM, first compound 10 µM): 7.79%
- viability, T/C (second compound 0.316 µM, first compound 0.0316 µM): 91.9%
- viability, T/C (second compound 0.316 µM, first compound 0.1 µM): 80.2%
- viability, T/C (second compound 0.316 µM, first compound 0.316 µM): 52.4%
- viability, T/C (second compound 0.316 µM, first compound 1 µM): 27.4%
- viability, T/C (second compound 0.316 µM, first compound 3.16 µM): 17.4%
- viability, T/C (second compound 0.316 µM, first compound 10 µM): 9.2%
- viability, T/C (second compound 1 µM, first compound 0.0316 µM): 89.2%
- viability, T/C (second compound 1 µM, first compound 0.1 µM): 71.9%
- viability, T/C (second compound 1 µM, first compound 0.316 µM): 56.1%
- viability, T/C (second compound 1 µM, first compound 1 µM): 36%
- viability, T/C (second compound 1 µM, first compound 3.16 µM): 19.2%
- viability, T/C (second compound 1 µM, first compound 10 µM): 7.67%
- viability, T/C (second compound 3.16 µM, first compound 0.0316 µM): 94.8%
- viability, T/C (second compound 3.16 µM, first compound 0.1 µM): 68.4%
- viability, T/C (second compound 3.16 µM, first compound 0.316 µM): 46.4%
- viability, T/C (second compound 3.16 µM, first compound 1 µM): 27.3%
- viability, T/C (second compound 3.16 µM, first compound 3.16 µM): 22.8%
- viability, T/C (second compound 3.16 µM, first compound 10 µM): 8.6%
- viability, T/C (second compound 10 µM, first compound 0.0316 µM): 80.7%
- viability, T/C (second compound 10 µM, first compound 0.1 µM): 60.3%
- viability, T/C (second compound 10 µM, first compound 0.316 µM): 43.4%
- viability, T/C (second compound 10 µM, first compound 1 µM): 24%
- viability, T/C (second compound 10 µM, first compound 3.16 µM): 23.9%
- viability, T/C (second compound 10 µM, first compound 10 µM): 9.35%

Structure (SMILES): CC(=O)O[C@H]1C(=O)[C@@]2(C)[C@H]([C@H](OC(=O)c3ccccc3)[C@]3(O)C[C@H](OC(=O)[C@H](O)[C@@H](NC(=O)c4ccccc4)c4ccccc4)C(C)=C1C3(C)C)[C@]1(OC(C)=O)CO[C@@H]1C[C@@H]2O + Cc1cccc(N(C)C(=O)C2C(O)CCN2c2nc(C)cc(C(F)(F)F)c2C#N)c1
- IC50 (second compound 0.0316 µM): 14.8 nM
- IC50 (second compound 0.1 µM): 13.4 nM
- IC50 (second compound 0.316 µM): 11.3 nM
- IC50 (second compound 1 µM): 13.5 nM
- IC50 (second compound 3.16 µM): 9.98 nM
- IC50 (second compound 10 µM): 9.95 nM
- viability, T/C (second compound 0.0316 µM, first compound 0.00949 µM): 69%
- viability, T/C (second compound 0.0316 µM, first compound 0.03 µM): 20.6%
- viability, T/C (second compound 0.0316 µM, first compound 0.0949 µM): 11.7%
- viability, T/C (second compound 0.0316 µM, first compound 0.3 µM): 12.8%
- viability, T/C (second compound 0.0316 µM, first compound 0.949 µM): 13.3%
- viability, T/C (second compound 0.0316 µM, first compound 3 µM): 13.3%
- viability, T/C (second compound 0.1 µM, first compound 0.00949 µM): 61.8%
- viability, T/C (second compound 0.1 µM, first compound 0.03 µM): 23.3%
- viability, T/C (second compound 0.1 µM, first compound 0.0949 µM): 12%
- viability, T/C (second compound 0.1 µM, first compound 0.3 µM): 11.6%
- viability, T/C (second compound 0.1 µM, first compound 0.949 µM): 12.8%
- viability, T/C (second compound 0.1 µM, first compound 3 µM): 12.5%
- viability, T/C (second compound 0.316 µM, first compound 0.00949 µM): 55%
- viability, T/C (second compound 0.316 µM, first compound 0.03 µM): 22.4%
- viability, T/C (second compound 0.316 µM, first compound 0.0949 µM): 13.6%
- viability, T/C (second compound 0.316 µM, first compound 0.3 µM): 12.6%
- viability, T/C (second compound 0.316 µM, first compound 0.949 µM): 13.3%
- viability, T/C (second compound 0.316 µM, first compound 3 µM): 11.6%
- viability, T/C (second compound 1 µM, first compound 0.00949 µM): 63.3%
- viability, T/C (second compound 1 µM, first compound 0.03 µM): 19.4%
- viability, T/C (second compound 1 µM, first compound 0.0949 µM): 13.4%
- viability, T/C (second compound 1 µM, first compound 0.3 µM): 11%
- viability, T/C (second compound 1 µM, first compound 0.949 µM): 13%
- viability, T/C (second compound 1 µM, first compound 3 µM): 13.8%
- viability, T/C (second compound 3.16 µM, first compound 0.00949 µM): 51.5%
- viability, T/C (second compound 3.16 µM, first compound 0.03 µM): 17.5%
- viability, T/C (second compound 3.16 µM, first compound 0.0949 µM): 14.1%
- viability, T/C (second compound 3.16 µM, first compound 0.3 µM): 12.1%
- viability, T/C (second compound 3.16 µM, first compound 0.949 µM): 13.2%
- viability, T/C (second compound 3.16 µM, first compound 3 µM): 16.4%
- viability, T/C (second compound 10 µM, first compound 0.00949 µM): 51.4%
- viability, T/C (second compound 10 µM, first compound 0.03 µM): 17.4%
- viability, T/C (second compound 10 µM, first compound 0.0949 µM): 14.1%
- viability, T/C (second compound 10 µM, first compound 0.3 µM): 14.8%
- viability, T/C (second compound 10 µM, first compound 0.949 µM): 14.6%
- viability, T/C (second compound 10 µM, first compound 3 µM): 14.5%
